Laboratory results published in ChEMBL document CHEMBL1142978, “Probing the anticancer activity of nucleoside analogues: a QSAR model approach using an internally consistent training set” (J Med Chem, 2007).
Where a SMILES comes first, the peptide text is derived from it.

Assay: Cytotoxicity against mouse L1210/0 cells after 48 hrs
Assay type: cell-based

Nc1nc(Cl)c2nnn([C@H]3CCCC[C@H]3CO)c2n1
IC50 (Mus musculus, L1210/0, 48 h): 95.5 µM

OC[C@@H]1CCC[C@@H]1Cn1cnc2c(Cl)ncnc21
IC50 (Mus musculus, L1210/0, 48 h): 52.5 µM

CC1(C)[C@@H](Cn2nnc3c(Cl)nc(N)nc32)CC[C@@]1(C)CO
IC50 (Mus musculus, L1210/0, 48 h): 44.6 µM

CC1(C)[C@@H](CO)CC[C@@]1(C)Cn1cnc2c(Cl)ncnc21
IC50 (Mus musculus, L1210/0, 48 h): 42.8 µM

CC1(C)[C@H](CCO)C[C@@H]1n1cnc2c(Cl)nc(N)nc21
IC50 (Mus musculus, L1210/0, 48 h): 105 µM

CC1(C)[C@@H](Cn2cnc3c(Cl)nc(N)nc32)CC[C@@]1(C)CO
IC50 (Mus musculus, L1210/0, 48 h): 50 µM

COc1ccc(-c2ncnc3c2ncn3C[C@@H]2C[C@H](CO)c3ccccc32)cc1
IC50 (Mus musculus, L1210/0, 48 h): 17.6 µM

Nc1nc(Cl)c2nnn(C[C@H]3CC[C@@H](CO)C3)c2n1
IC50 (Mus musculus, L1210/0, 48 h): 170 µM

OC[C@H]1C[C@@H](Cn2cnc3c(-c4ccccc4)ncnc32)c2ccccc21
IC50 (Mus musculus, L1210/0, 48 h): 28.1 µM

OC[C@H]1C[C@@H](Cn2cnc3c(-c4ccc(Cl)cc4)ncnc32)c2ccccc21
IC50 (Mus musculus, L1210/0, 48 h): 8.44 µM

CC(C)C[C@H](NC(=O)[C@@H]1CCCN1)C(=O)NCC(N)=O (H-Pro-Leu-Gly-NH2)
IC50 (Mus musculus, L1210/0, 48 h): > 200 µM

Nc1ncnc2c1ncn2C1OC(C(O)O)[C@H](O)[C@H]1O (single isomer, unassigned)
IC50 (Mus musculus, L1210/0, 48 h): > 200 µM

Nc1ncnc2c1ncn2[C@@H]1O[C@H](C=O)C(O)C1O (single isomer, unassigned)
IC50 (Mus musculus, L1210/0, 48 h): 36.6 µM

Nc1ncnc2c1ncn2[C@@H]1O[C@H](/C=N/O)[C@@H](O)[C@H]1O (stereo in doubt; 75)
IC50 (l1210/0): 6.47 µM

Nc1ncnc2c1ncn2[C@@H]1O[C@H](/C=N/O)[C@@H](O)[C@H]1O (stereo in doubt; 82)
IC50 (l1210/0): 37.5 µM

Nc1nc2c(ncn2COCCO)c(=O)[nH]1 [ACYCLOVIR]
IC50 (Mus musculus, L1210/0, 48 h): 57.7 µM

Nc1ncnc2c1ncn2CCOCP(=O)(O)O [ADEFOVIR]
IC50 (Mus musculus, L1210/0, 48 h): 7.45 µM

O=c1[nH]c(=O)n([C@H]2C[C@H](O)[C@@H](CO)O2)cc1/C=C/Br [BRIVUDINE]
IC50 (Mus musculus, L1210/0, 48 h): 80.8 µM

O=c1[nH]c(=O)n([C@H]2C[C@H](O)[C@@H](CO)O2)cc1Br [BROXURIDINE]
IC50 (Mus musculus, L1210/0, 48 h): 84.7 µM

Nc1ccn([C@@H]2O[C@H](CO)[C@@H](O)[C@@H]2O)c(=O)n1 [CYTARABINE]
IC50 (Mus musculus, L1210/0, 48 h): 0.7 µM

CCc1cn([C@H]2C[C@H](O)[C@@H](CO)O2)c(=O)[nH]c1=O [EDOXUDINE]
IC50 (Mus musculus, L1210/0, 48 h): 33.2 µM

O=c1[nH]cc(F)c(=O)[nH]1 [FLUOROURACIL]
IC50 (Mus musculus, L1210/0, 48 h): 0.31 µM

Nc1nc2c(ncn2CCOCP(=O)(O)O)c(=O)[nH]1 [GS-438]
IC50 (Mus musculus, L1210/0, 48 h): 0.57 µM

O=c1[nH]c(=O)n([C@H]2C[C@H](O)[C@@H](CO)O2)cc1I [IDOXURIDINE]
IC50 (Mus musculus, L1210/0, 48 h): 173 µM

Nc1nc(N)c2ncn(CCOCP(=O)(O)O)c2n1 [PMEDAP]
IC50 (Mus musculus, L1210/0, 48 h): 1.73 µM

O=c1[nH]c(=O)n([C@H]2C[C@H](O)[C@@H](CO)O2)cc1C(F)(F)F [TRIFLURIDINE]
IC50 (Mus musculus, L1210/0, 48 h): 0.02 µM
